ChEMBL document CHEMBL4390652, “Design, biological evaluation and X-ray crystallography of nanomolar multifunctional ligands targeting simultaneously acetylcholinesterase and glycogen synthase kinase-3” (Eur J Med Chem, 2019)

Assays:
[1] = Cytotoxicity against human SH-SY5Y cells assessed as reduction in cell viability at 100 uM incubated for 24 hrs by MTT assay relative to untreated cells; assay type: cell-based; conditions: read-out: INH
[2] = target: Activin receptor type-2A (Homo sapiens) (UniProt P27037); assay: Binding affinity to wild-type human ACVR2A (V171 to T499 residues) expressed in bacterial expression system assessed as residual binding level at 10 uM by Kinomescan method relative to control
[3] = target: Activin receptor type-1-like (Homo sapiens) (UniProt P37023); assay: Binding affinity to wild-type human ACVRL1 (L164 to Q503 residues) expressed in bacterial expression system assessed as residual binding level at 10 uM by Kinomescan method relative to control
[4] = target: Calcium/calmodulin-dependent protein kinase type 1 (Homo sapiens) (UniProt Q14012); assay: Binding affinity to wild-type human full length CAMK1 (M1 to L370 residues) expressed in bacterial expression system assessed as residual binding level at 10 uM by Kinomescan method relative to control
[5] = target: Calcium/calmodulin-dependent protein kinase type 1B (Homo sapiens) (UniProt Q6P2M8); assay: Binding affinity to wild-type human partial length CAMK1B (W9 to A311 residues) expressed in mammalian expression system assessed as residual binding level at 10 uM by Kinomescan method relative to control
[6] = target: Glycogen synthase kinase-3 beta (Homo sapiens) (UniProt P49841); assay: Binding affinity to wild-type human full length GSK3B (M1 to T433 residues) expressed in mammalian expression system assessed as residual binding level at 10 uM by Kinomescan method relative to control
[7] = target: Homeodomain-interacting protein kinase 1 (Homo sapiens) (UniProt Q86Z02); assay: Binding affinity to wild-type human partial length HIPK1 (M146 to I555 residues) expressed in mammalian expression system assessed as residual binding level at 10 uM by Kinomescan method relative to control
[8] = target: Mast/stem cell growth factor receptor Kit (Homo sapiens) (UniProt P10721); assay: Binding affinity to wild-type human partial length KIT (I571 to D952 residues) expressed in bacterial expression system assessed as residual binding level at 10 uM by Kinomescan method relative to control
[9] = target: Tyrosine-protein kinase Lck (Homo sapiens) (UniProt P06239); assay: Binding affinity to wild-type human partial length LCK (R207 to P509 residues) expressed in bacterial expression system assessed as residual binding level at 10 uM by Kinomescan method relative to control
[10] = target: Serine/threonine-protein kinase MAK (Homo sapiens) (UniProt P20794); assay: Binding affinity to wild-type human partial length MAK (M1 to P314 residues) expressed in bacterial expression system assessed as residual binding level at 10 uM by Kinomescan method relative to control
[11] = target: MAP kinase-activated protein kinase 2 (Homo sapiens) (UniProt P49137); assay: Binding affinity to wild-type human partial length MAPKAPK2 (V48 to D345 residues) expressed in bacterial expression system assessed as residual binding level at 10 uM by Kinomescan method relative to control
[12] = target: Mitogen-activated protein kinase kinase kinase 11 (Homo sapiens) (UniProt Q16584); assay: Binding affinity to wild-type human partial length MLK3 (I77 to W399 residues) expressed in bacterial expression system assessed as residual binding level at 10 uM by Kinomescan method relative to control
[13] = target: Serine/threonine-protein kinase 4 (Homo sapiens) (UniProt Q13043); assay: Binding affinity to wild-type human full length MST1 (M1 to F487 residues) expressed in bacterial expression system assessed as residual binding level at 10 uM by Kinomescan method relative to control
[14] = target: Serine/threonine-protein kinase 3 (Homo sapiens) (UniProt Q13188); assay: Binding affinity to wild-type human partial length MST2 (D17 to E318 residues) expressed in bacterial expression system assessed as residual binding level at 10 uM by Kinomescan method relative to control
[15] = target: Serine/threonine-protein kinase PAK 4 (Homo sapiens) (UniProt O96013); assay: Binding affinity to wild-type human partial length PAK4 (Q144 to R438 residues) expressed in bacterial expression system assessed as residual binding level at 10 uM by Kinomescan method relative to control
[16] = target: Phosphorylase b kinase gamma catalytic chain, liver/testis isoform (Homo sapiens) (UniProt P15735); assay: Binding affinity to wild-type human partial length PHKG2 (M1 to W300 residues) expressed in bacterial expression system assessed as residual binding level at 10 uM by Kinomescan method relative to control
[17] = system: Phosphatidylinositol 4,5-bisphosphate 3-kinase catalytic subunit alpha isoform (Homo sapiens), P42336 [I800L]; assay: Binding affinity to human partial length PIK3CA I800L mutant (R108 to N1068 residues) expressed in mammalian expression system assessed as residual binding level at 10 uM by Kinomescan method relative to control
[18] = target: cAMP-dependent protein kinase catalytic subunit beta (Homo sapiens) (UniProt P22694); assay: Binding affinity to wild-type human full length PKAC-beta (M1 to F351 residues) expressed in bacterial expression system assessed as residual binding level at 10 uM by Kinomescan method relative to control
[19] = target: Serine/threonine-protein kinase N1 (Homo sapiens) (UniProt Q16512); assay: Binding affinity to wild-type human partial length PKN1 (E598 to C948 residues) expressed in bacterial expression system assessed as residual binding level at 10 uM by Kinomescan method relative to control
[20] = target: cAMP-dependent protein kinase catalytic subunit PRKX (Homo sapiens) (UniProt P51817); assay: Binding affinity to wild-type human partial length PRKX (M1 to F358 residues) expressed in bacterial expression system assessed as residual binding level at 10 uM by Kinomescan method relative to control
[21] = target: Tyrosine-protein kinase SYK (Homo sapiens) (UniProt P43405); assay: Binding affinity to wild-type human partial length SYK (D354 to N635 residues) expressed in bacterial expression system assessed as residual binding level at 10 uM by Kinomescan method relative to control
[22] = target: TGF-beta receptor type-1 (Homo sapiens) (UniProt P36897); assay: Binding affinity to wild-type human partial length TGFBR1 (D179 to M503 residues) expressed in bacterial expression system assessed as residual binding level at 10 uM by Kinomescan method relative to control
[23] = target: Testis-specific serine/threonine-protein kinase 3 (Homo sapiens) (UniProt Q96PN8); assay: Binding affinity to wild-type human full length TSSK3 (M1 to T268 residues) expressed in mammalian expression system assessed as residual binding level at 10 uM by Kinomescan method relative to control
[24] = target: Phosphatidylinositol 3-kinase catalytic subunit type 3 (Homo sapiens) (UniProt Q8NEB9); assay: Binding affinity to wild-type human partial length VPS34 (S282 to H879 residues) expressed in mammalian expression system assessed as residual binding level at 10 uM by Kinomescan method relative to control
[25] = target: Tyrosine-protein kinase Yes (Homo sapiens) (UniProt P07947); assay: Binding affinity to wild-type human partial length YES (T257 to L543 residues) expressed in bacterial expression system assessed as residual binding level at 10 uM by Kinomescan method relative to control

Sequence of Phosphorylase b kinase gamma catalytic chain, liver/testis isoform (Homo sapiens) (P15735 whole entry, the tested form may be a part, canonical isoform): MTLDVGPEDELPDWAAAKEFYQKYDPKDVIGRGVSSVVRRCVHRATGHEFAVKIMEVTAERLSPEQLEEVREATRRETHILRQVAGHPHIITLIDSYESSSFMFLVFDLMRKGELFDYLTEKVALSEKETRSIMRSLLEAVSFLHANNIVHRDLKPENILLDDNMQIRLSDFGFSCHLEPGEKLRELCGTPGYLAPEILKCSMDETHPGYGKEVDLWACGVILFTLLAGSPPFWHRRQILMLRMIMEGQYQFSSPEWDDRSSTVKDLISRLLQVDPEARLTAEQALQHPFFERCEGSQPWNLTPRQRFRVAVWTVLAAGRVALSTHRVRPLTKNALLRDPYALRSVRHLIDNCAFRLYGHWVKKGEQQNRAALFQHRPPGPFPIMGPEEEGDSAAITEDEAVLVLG
Sequence of TGF-beta receptor type-1 (Homo sapiens) (P36897 whole entry, the tested form may be a part): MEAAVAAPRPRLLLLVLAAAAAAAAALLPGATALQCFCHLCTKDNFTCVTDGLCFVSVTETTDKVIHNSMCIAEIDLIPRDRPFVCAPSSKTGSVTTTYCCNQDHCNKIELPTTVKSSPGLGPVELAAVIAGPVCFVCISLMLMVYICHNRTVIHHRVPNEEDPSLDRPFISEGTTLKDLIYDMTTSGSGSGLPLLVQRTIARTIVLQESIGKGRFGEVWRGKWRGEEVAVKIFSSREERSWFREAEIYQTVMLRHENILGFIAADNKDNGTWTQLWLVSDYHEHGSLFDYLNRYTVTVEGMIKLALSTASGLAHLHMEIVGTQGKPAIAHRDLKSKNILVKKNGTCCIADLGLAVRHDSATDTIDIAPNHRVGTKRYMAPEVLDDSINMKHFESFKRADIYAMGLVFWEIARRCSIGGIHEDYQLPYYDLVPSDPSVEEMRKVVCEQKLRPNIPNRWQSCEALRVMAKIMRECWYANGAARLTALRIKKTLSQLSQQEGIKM
Sequence of Serine/threonine-protein kinase 4 (Homo sapiens) (Q13043 whole entry, the tested form may be a part): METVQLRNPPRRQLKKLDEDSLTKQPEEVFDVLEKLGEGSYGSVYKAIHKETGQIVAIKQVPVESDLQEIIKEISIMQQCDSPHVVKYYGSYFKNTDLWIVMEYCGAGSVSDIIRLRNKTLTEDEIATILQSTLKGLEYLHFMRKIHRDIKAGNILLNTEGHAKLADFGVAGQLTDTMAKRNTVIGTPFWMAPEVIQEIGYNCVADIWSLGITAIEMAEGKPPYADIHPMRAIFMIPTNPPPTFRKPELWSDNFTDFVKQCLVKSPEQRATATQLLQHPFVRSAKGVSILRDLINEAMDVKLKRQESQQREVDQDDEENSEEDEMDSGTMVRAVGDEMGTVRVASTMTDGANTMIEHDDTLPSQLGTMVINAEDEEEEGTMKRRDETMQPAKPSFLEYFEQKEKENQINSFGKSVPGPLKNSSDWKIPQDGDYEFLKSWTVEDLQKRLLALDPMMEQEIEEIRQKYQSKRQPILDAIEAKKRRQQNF
Sequence of Serine/threonine-protein kinase PAK 4 (Homo sapiens) (O96013 whole entry, looked up, the tested form may be a part, canonical isoform): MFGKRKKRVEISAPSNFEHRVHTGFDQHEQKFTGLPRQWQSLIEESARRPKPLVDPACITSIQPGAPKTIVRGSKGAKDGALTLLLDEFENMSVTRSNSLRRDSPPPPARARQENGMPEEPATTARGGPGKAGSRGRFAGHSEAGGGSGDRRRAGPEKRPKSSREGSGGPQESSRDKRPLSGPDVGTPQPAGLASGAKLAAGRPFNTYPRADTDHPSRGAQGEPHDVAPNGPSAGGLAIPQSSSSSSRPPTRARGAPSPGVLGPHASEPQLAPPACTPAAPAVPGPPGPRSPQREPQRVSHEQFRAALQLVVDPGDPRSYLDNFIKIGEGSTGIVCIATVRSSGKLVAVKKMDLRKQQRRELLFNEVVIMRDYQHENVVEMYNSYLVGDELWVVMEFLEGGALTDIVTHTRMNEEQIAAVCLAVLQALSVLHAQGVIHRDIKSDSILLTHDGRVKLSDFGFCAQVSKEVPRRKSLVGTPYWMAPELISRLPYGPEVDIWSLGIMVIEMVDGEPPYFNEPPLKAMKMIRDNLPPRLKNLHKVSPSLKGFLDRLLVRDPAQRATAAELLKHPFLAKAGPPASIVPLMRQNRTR
Sequence of Mast/stem cell growth factor receptor Kit (Homo sapiens) (P10721 whole entry, the tested form may be a part): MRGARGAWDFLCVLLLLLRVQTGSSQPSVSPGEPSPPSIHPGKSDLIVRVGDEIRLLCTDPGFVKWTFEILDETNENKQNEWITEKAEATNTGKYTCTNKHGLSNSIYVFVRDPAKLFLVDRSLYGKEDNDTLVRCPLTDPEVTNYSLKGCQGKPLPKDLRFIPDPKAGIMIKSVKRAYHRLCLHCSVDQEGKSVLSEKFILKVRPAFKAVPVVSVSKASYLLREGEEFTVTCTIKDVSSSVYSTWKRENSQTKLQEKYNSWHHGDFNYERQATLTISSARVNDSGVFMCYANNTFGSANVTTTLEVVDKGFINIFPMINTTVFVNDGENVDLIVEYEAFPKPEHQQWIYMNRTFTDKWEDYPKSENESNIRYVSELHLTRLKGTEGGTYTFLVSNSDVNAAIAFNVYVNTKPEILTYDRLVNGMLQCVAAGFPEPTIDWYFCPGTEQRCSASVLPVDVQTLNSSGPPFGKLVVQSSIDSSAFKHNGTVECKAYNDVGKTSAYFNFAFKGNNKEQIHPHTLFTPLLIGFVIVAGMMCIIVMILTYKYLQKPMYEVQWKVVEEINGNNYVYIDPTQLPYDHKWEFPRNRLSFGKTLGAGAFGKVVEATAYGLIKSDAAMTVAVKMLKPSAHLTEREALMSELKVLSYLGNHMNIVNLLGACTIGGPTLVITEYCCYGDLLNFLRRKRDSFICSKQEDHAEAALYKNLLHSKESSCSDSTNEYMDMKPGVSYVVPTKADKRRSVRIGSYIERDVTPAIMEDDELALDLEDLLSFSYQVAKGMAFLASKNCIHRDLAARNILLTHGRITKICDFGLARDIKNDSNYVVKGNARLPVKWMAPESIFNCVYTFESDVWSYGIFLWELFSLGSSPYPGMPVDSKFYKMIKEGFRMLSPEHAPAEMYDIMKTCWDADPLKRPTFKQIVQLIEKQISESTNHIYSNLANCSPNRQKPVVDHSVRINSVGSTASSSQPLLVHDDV
Sequence of Serine/threonine-protein kinase MAK (Homo sapiens) (P20794 whole entry, the tested form may be a part): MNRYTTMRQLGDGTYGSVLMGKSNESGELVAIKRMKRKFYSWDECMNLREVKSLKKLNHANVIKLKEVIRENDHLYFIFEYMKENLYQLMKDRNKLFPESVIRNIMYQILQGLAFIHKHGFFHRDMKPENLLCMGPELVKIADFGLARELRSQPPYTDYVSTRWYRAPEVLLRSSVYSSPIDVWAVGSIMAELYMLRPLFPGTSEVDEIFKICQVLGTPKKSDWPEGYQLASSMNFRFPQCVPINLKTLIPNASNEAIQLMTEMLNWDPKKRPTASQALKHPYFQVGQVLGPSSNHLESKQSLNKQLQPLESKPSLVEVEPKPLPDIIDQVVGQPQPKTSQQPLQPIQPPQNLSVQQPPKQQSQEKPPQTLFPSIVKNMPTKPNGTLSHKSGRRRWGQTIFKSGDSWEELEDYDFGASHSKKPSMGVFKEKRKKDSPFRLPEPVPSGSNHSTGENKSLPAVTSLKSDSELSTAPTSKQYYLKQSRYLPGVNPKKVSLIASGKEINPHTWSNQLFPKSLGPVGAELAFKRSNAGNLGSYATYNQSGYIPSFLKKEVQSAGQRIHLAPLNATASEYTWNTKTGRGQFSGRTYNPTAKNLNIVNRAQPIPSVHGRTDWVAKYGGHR
Sequence of Glycogen synthase kinase-3 beta (Homo sapiens) (P49841 whole entry, looked up, the tested form may be a part): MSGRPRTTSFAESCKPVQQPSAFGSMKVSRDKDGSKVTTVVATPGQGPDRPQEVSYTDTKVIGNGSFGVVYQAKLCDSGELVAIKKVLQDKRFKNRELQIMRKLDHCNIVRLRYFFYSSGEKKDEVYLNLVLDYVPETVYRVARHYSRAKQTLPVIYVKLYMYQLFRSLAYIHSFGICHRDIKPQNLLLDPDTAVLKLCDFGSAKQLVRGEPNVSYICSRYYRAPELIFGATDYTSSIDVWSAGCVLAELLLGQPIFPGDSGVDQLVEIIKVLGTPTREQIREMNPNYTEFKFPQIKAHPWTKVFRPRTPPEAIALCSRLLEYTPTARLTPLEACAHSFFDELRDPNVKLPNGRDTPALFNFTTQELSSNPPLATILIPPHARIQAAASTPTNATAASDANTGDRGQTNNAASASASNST
Sequence of Phosphatidylinositol 3-kinase catalytic subunit type 3 (Homo sapiens) (Q8NEB9 whole entry, the tested form may be a part): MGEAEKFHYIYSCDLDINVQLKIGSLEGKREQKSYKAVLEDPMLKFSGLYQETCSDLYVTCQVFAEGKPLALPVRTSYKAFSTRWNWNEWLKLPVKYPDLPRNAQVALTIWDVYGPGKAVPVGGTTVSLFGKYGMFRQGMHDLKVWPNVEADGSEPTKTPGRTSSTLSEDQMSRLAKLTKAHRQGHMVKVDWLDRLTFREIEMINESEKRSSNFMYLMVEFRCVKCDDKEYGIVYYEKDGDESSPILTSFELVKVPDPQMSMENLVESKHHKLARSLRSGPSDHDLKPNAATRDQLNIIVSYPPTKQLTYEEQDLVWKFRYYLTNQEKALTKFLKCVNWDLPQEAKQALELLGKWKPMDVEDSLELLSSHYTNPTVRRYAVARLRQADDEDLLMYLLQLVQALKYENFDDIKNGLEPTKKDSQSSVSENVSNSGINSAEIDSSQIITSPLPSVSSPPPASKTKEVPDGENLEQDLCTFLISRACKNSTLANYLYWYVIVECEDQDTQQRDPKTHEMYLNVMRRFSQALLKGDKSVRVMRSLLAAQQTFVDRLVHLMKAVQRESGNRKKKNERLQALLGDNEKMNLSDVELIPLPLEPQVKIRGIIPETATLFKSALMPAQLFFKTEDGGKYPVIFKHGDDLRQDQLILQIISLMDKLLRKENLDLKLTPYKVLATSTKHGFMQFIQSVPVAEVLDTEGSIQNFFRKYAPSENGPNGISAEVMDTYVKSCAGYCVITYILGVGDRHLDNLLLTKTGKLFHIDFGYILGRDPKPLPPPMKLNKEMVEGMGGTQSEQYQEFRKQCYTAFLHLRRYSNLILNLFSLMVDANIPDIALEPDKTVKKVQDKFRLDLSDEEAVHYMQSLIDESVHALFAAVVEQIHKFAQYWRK

For `O=C(Nc1cc(-c2cn(CCNc3c4c(nc5ccccc35)CCCC4)nn2)ccn1)Nc1cccc2c1C1CCCCN1C2=O` (racemic), the cytotoxicity at 24 h, 100 µM [1] was 50%, the Activity [2] was 100% and the Activity [3] was 100%. For the same compound, the Activity [4] was 52%, the Activity [5] was 100% and the Activity [6] was 17%. The Activity [7] was 43%, the Activity [8] was 0.25% and the Activity [9] was 23%. For the same compound, the Activity [10] was 52%, the Activity [11] was 100% and the Activity [12] was 58%. The Activity [13] was 66%, the Activity [14] was 21% and the Activity [15] was 14%. It also gave an Activity [16] of 50%, an Activity [17] of 55% and an Activity [18] of 99%. The Activity [19] was 18%, the Activity [20] was 15% and the Activity [21] was 91%. It also gave an Activity [22] of 74%, an Activity [23] of 100% and an Activity [24] of 3.7%. The Activity [25] was 76%.
